Assay results reported in article PMC10518255, “A first-in-class pan-lysyl oxidase inhibitor impairs stromal remodeling and enhances gemcitabine response and survival in pancreatic cancer” (Nature Cancer, 2023).
Where “and” joins values, the source holds several entries; their conditions need not be identical. Identical values can stand only once.

Columns and labels:
[1] = test system: lysyl oxidase family members in KPC CAFs; assay: qRT-PCR of lysyl oxidase family members after treatment (Extended Data Figs. 2d, 3h); type: cell-based, mouse; set-up: qRT-PCR LOX (Ct) / qRT-PCR LOX ΔCt / qRT-PCR LOX ΔΔCt KPC CAF / qRT-PCR LOXL1 ΔCt / qRT-PCR LOXL1 ΔΔCt KPC CAF / qRT-PCR LOXL2 ΔCt / qRT-PCR LOXL2 ΔΔCt KPC CAF / qRT-PCR LOXL3 ΔCt / qRT-PCR LOXL3 ΔΔCt KPC CAF / qRT-PCR LOXL4 ΔCt / qRT-PCR LOXL4 ΔΔCt KPC CAF: dose or concentration left out as unconfirmed;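 on qRT-PCR LOX ΔCt: 30 µM PXS-5505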;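 on qRT-PCR LOXL2 ΔCt: 30 µM PXS-5505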;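 on qRT-PCR LOXL3 ΔCt: 30 µM PXS-5505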;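 on qRT-PCR LOXL4 ΔCt: 30 µM PXS-5505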
Procedure: RNA was isolated using the RNeasy mini kit (QIAGEN) according to the manufacturer’s instructions. Then, 1 μg of RNA was reverse transcribed using the Transcriptor First Strand cDNA Synthesis kit (Roche LifeScience) with anchored-oligo(dT)18 primers or the QuantiTect Reverse Transcription kit (QIAGEN). Real-time PCR was performed using the Roche LightCycler480 (Roche LifeScience) or QuantStudio 7 (Thermo Fisher). The following probe sets from Applied Biosystems, were used: LOX, Mm00495386; LOXL1, Mm01145738; LOXL2, Mm00804740; LOXL3, Mm01184867; LOXL4, Mm00446385; and GAPDH, Mm99999915. Primers and Roche Universal Probe Library probes used for RT–qPCR are described in Supplementary Table 4. Relative mRNA expression levels for each transcript of interest were normalized to GAPDH or ACTB (as indicated) and quantified using the comparative double ΔCt method (unless stated otherwise) for each biological replicate.
Extended Data Fig. 2 Characterization of cells derived from the KPC autochthonous model. a. Immunofluorescence staining of KPC CCs and KPC CAFs for the pancreatic epithelial cell marker CDH1 (green), DAPI (blue) and for the CAF marker α-SMA (yellow), DAPI (blue). Representative images from n = 3 biological independent samples. Scale bar = 30 μm. b. RNAseq reads for CAF and epithelial cell makers in KPC CAFs n = 3 biological independent samples. […] Data is presented as mean values ± SEM. […] Data presented as mean values +/− SD. […] Source data
Data presented as mean values +/− SD. f. […] Data presented as mean values +/− SD. […] Data presented as mean values +/− SD. […] Data presented as mean values +/− SD. Ordinary one-way ANOVA for multiple comparison test performed. Source data

KPC mouse model of PDAC = assay: KPC in vivo survival study; conditions: KPC mice; PXS-5505 20 mg kg−1 i.p. daily, gemcitabine 100 mg kg−1 i.p. twice weekly
Source text: (§1) The maximal tumor burden allowed by ethics was not exceeded.
as §1

APMA human PDX tumors = assay: APMA human PDX model, tumor volumes at end point (Extended Data Fig. 5g); type: in vivo, mouse; conditions: Extended Data 5G; second human PDX model after 3 cycles of treatment; individual animals
Procedure: Subcutaneous PDX studies were performed by implanting early passage PDX pieces (~4 mm^3) or TKCC10 CCs (1.5 × 10^6 cells per mouse in 100 μl PBS/Matrigel 1:1) into female (PDX) or male (TKCC10) 8-week-old immunocompromised nude Balb/c-Fox1nuAusb mice subcutaneously on the left flank. For the duration of the study, mice were kept in conventional caging with environmental enrichment, access to standard chow, water ad libitum and 12-h light–dark cycle at ambient temperature and humidity. Treatment began when tumors reached 150 mm^3, where each mouse was randomized into a treatment group and administered gemcitabine HCl (100 mg kg^−1 in saline) (Jomar Life Research) or vehicle control (0.9% saline) by i.p. injection twice weekly on day 2 and 4 of the treatment cycle until an ethical end point was reached. These included maximal tumor mass ≥10% of body weight, weight loss ≥20% from maximum body weight or tumor interfering with mobility and affecting access to food and water. Animals with non-tumor-related complications that led to a premature end point were censored. PXS-5505 (20 mg kg^−1 in saline) or vehicle (0.9% saline) was administered daily by i.p. injection. Tumor size was monitored every second day by calipers. Tumor volume was calculated using the formula (length × width^2)/2. At day 39, mice were killed via CO2 and cervical dislocation and tumors were collected and processed. […]

[2] = 50 nM gemcitabine, 48 hours, per replicate
[3] = 50 nM gemcitabine, 48 hours, vs GAPDH, per replicate
[4] = 48 hour treatment, 30 M PXS-5505, replicates
[5] = 48 hour treatment, PXS-5505, replicates
[6] = 48 hour treatment, PXS-5505, vs GAPDH, replicates

## Nc1ccn([C@@H]2O[C@H](CO)[C@@H](O)C2(F)F)c(=O)n1 [Gem, gemcitabine]
[1]; 50 nM gemcitabine for 48 hours
  expression of lysyl oxidase family members: increased
[1]; [2]
  LOX ΔΔCt CC: 1.655 and 2.327 and 2.145
  LOXL1 ΔΔCt CC: 1.866 and 1.895 and 1.813
  LOXL2 ΔΔCt CC: 2.3261 and 2.2233 and 1.33
  LOXL3 ΔΔCt CC: 1.66 and 2.86 and 2.05
  LOXL4 ΔΔCt CC: 2.014 and 1.617 and 1.18
[1]; [3]
  LOX ΔCt: 6.157 and 5.668 and 5.782
  LOXL1 ΔCt: 8.043 and 8.021 and 8.085
  LOXL2 ΔCt: 4.354 and 4.419 and 5.16
  LOXL3 ΔCt: 4.977 and 5.26 and 5.74
  LOXL4 ΔCt: 6.2696 and 6.5867 and 7.04
KPC mouse model of PDAC
  Median survival since diagnosis: 125 days
APMA human PDX tumors
  Tumour volumes at endpoint: 145.448 mm3 and 9.626 mm3 and 12.4718 mm3 and 45.315 mm3 and 3.952 mm3 and 50.8335 mm3 and 16.8359 mm3 and 29.7673 mm3 and 51.7185 mm3 and 16.7442 mm3

## Cl.Cl.NC/C=C(\F)CS(=O)(=O)c1cccc2cccnc12.O [PXS-5505, (Z)-3-fluoro-4-(quinolin-8-ylsulfonyl)but-2-en-1-amine dihydrochloride monohydrate]
[1]; [4]
  qRT-PCR LOXL1 (Ct): 27.9242 and 27.0668
  qRT-PCR LOXL2 (Ct): 25.5976 and 25.3053 and 25.9273
  qRT-PCR LOXL3 (Ct): 27.0409 and 26.0554 and 26.3059
  qRT-PCR LOXL4 (Ct): 27.6755 and 27.1763 and 27.4097
[1]; [5]
  qRT-PCR LOX (Ct): 27.9362 and 27.041 and 26.9697
  qRT-PCR LOX ΔΔCt KPC CAF: 0.4495 and 1.003 and 0.5566
  qRT-PCR LOXL1 ΔΔCt KPC CAF: 0.5108 and 0.4889 and 0.4223
  qRT-PCR LOXL2 ΔΔCt KPC CAF: 0.6912 and 0.4472 and 0.4586
  qRT-PCR LOXL3 ΔΔCt KPC CAF: 0.6435 and 0.6732 and 0.893
  qRT-PCR LOXL4 ΔΔCt KPC CAF: 1.222 and 0.9127 and 1.225
[1]; [6]
  qRT-PCR LOX ΔCt: 9.054 and 7.896 and 8.745
  qRT-PCR LOXL1 ΔCt: 8.779 and 8.842
  qRT-PCR LOXL2 ΔCt: 6.453 and 7.081 and 7.045
  qRT-PCR LOXL3 ΔCt: 7.896 and 7.831 and 7.423
  qRT-PCR LOXL4 ΔCt: 8.531 and 8.952 and 8.527
[1]; PXS-5505 up to 300 µM
  transcription of lysyl oxidase family members: does not significantly alter transcription
KPC mouse model of PDAC
  Median survival since diagnosis: 81 days
APMA human PDX tumors
  Tumour volumes at endpoint: 111.838 mm3 and 144.188 mm3 and 186.048 mm3 and 277.687 mm3 and 285.67 mm3 and 63.9218 mm3 and 265.041 mm3 and 180.58 mm3 and 65.1463 mm3
